Test system: histamine H2 -receptors
Test: Heidenhain pouch dog: inhibition of histamine-stimulated acid secretion
Assay type: in vivo
Conditions: intravenous administration; dose levels adjusted to produce similar peak responses

Nc1c(NCCCOc2cc(CN3CCCCC3)ccn2)c(=O)c1=O [Example 1, 1-[3-[4-(Piperidinomethyl)pyrid-2-yloxy]prop-1-ylamino]-2-aminocyclobut-1-ene-3,4-dione]
duration of action relative to cimetidine: significant increase in duration of action

Source: US4466970A, “Dioxocyclobutene compounds” (Smith Kline & French Laboratories Limited, priority 1982, dated 1984)
